Data: patent publication US11110102B2, “Antifungal agents used in combination” (Scynexis, Inc., priority 2017, dated 2021)

What was measured:
[1] = test system: NIH Aspergillus fumigatus isolate 4215; test: Neutropenic rabbit model of invasive pulmonary aspergillosis (New Zealand White rabbits); format: in vivo; conditions: intravenously once daily
Experimental: A study was conducted to evaluate the efficacy of the combination of SCY-078 with isavuconazole. Isavuconazole is a second generation antifungal triazole with activity against Aspergillus spp. As described above, invasive pulmonary aspergillosis is a life-threatening infection in immunosuppressed patients—particularly those with severe and prolonged neutropenia as a consequence of myelotoxic chemotherapy for the treatment of cancer, and those receiving immunosuppressive medication for rejection prophylaxis after organ transplantation or treatment of graft-versus-host disease (GVHD) after allogeneic bone marrow transplantation. A neutropenic rabbit model was selected for this in vivo evaluation to further illustrate the effect of the combination therapy of SCY-078 and an azole, in a relevant immunosuppressed population.
New Zealand White rabbits weighing 2.5 to 3.5 kg (Covance Research Products, Inc., Denver, Pa.) were used in this study. Vascular access was established by the surgical placement of a silastic tunneled central venous catheter. Cytosine arabinoside (Cytosar-U) 525 mg/m^2 was administered intravenously on days 1 through 5, and on days 8, 9, 13 and 14 to produce profound and persistent neutropenia (a neutrophil concentration of <100 neutrophils/μL). Methylprednisolone (Solu-Medrol®, Pfizer, NY) 5 mg/kg was administered on days 1 through 3 to inhibit macrophage activity. […]
Survival, pulmonary infarct, and galactomannan antigenemia (a serological marker of Aspergillus infection) were evaluated as indicators of treatment response. […] Serum galactomannan concentrations were determined by the Platelia® Aspergillus enzyme immunoassay (EIA) (Bio-Rad, Marnes-la-Coquette, France) one-stage immunoenzymatic sandwich microplate assay method. Enzyme immunoassay data were expressed as a serum GMI (galactomannan index) plotted over time.

A. fumigatus MRL #28500 = test: Checkerboard combination MIC testing; format: cell-based, Aspergillus fumigatus; conditions: read at 48 hours, duplicate
Source text: To determine the type of interaction between a representative compound of the enfumafungin derivatives (SCY-078) with several antifungal agents against Aspergillus fumigatus, the most frequent mold causing invasive disease in humans, the checkerboard method was used. The citrate salt of the compound was used in the studies.
The checkerboard method involves the determination of percent growth inhibition of fungal cells in the presence of different combinations of drugs. Percent growth inhibition is calculated relative to growth in control wells which contain only cells and no drug. The assay was performed in 96-well microplates in which each row and each column contained twofold serial dilutions of drug A and drug B at concentrations ranging from 0 to slightly higher than their minimum inhibitory concentration (MIC). […] Then the inoculum was added to each well and the growth was evaluated after 48 hrs incubation to determine the first well in which growth was inhibited. The checkerboard-based determination of MICs of antifungal agents in combination was followed by further analysis employing the nonparametric fractional inhibitory concentration index (FICI), which is defined by the following equation:
[formula] where MIC-A and MIC-B are the MICs of drugs A and B, respectively.
Each drug was initially diluted in either sterile, distilled water or in DMSO, depending on whether the drug was water-soluble or water-insoluble, respectively.
Stock solution of SCY-078 was prepared in DMSO at 200 times the concentration desired for use in the drug plates. Serial dilutions of stock solution were conducted in DMSO to obtain eleven 2-fold dilutions of the drug. The SCY-078 solution was then diluted to 4 times the desired concentration in RPMI-1640 medium so that the DMSO would not limit growth of the organism and so that the quantity of DMSO was the same for every dilution.
Two 96-well plates are needed to conduct a combination test. Using a multichannel pipette, 50 μl of the lowest concentration of the first drug (Drug A) was added to each well of column 1 of the first plate (plate A) and column 1 of the second plate (plate B; rows A-D). Then, 50 μl of the next highest working dilution of Drug A was added to each well in column 2, continuing with dilutions until all columns 1-11 were filled. Column 12 was left empty. 50 μl of the lowest concentration of Drug B was added to each well in Row D of plate B. 50 μl of the next highest working dilution of Drug B was added to each well in row C of plate B, continuing with dilutions until all rows through row B of plate A were filled.
Following the above, 100 μl of organism inoculum was added to every well. The plates were then incubated for 48 hours and visually read after incubation.
The objective of the study was to determine whether the combination of SCY-078 with voriconazole, isavuconazole, or amphotericin B would result in a combined in vitro antifungal activity exceeding the sum of the activities of each drug alone. Combination MIC testing was performed using the checkerboard assay described above.
A. fumigatus 28500 has a CYP51 mutation at F46Y.
Initial MIC determinations of the individual antifungals were performed according to the Clinical and Laboratory Standards Institute (CLSI) M38-A2 standard for the susceptibility testing of filamentous fungi.
Combination MIC testing was performed using a checkerboard test method according to the Center for Medical Mycology SOP A11.3. The checkerboard combination test method is a modification of the microdilution antifungal susceptibility test wherein two test compounds are combined in varying concentrations to determine whether they have synergistic, antagonistic, or no effect on the respective MIC values.
Antifungals were serially diluted two-fold in RPMI medium to produce eleven concentrations each and were combined in wells of a microtiter plate. Two rows consisting of serial dilutions of each individual drug were included. […]

| SMILES | survival rate up to day 13 ([1]; ISA40: isavuconazole 40 mg/kg/day alone, 2 out of 6) [%] | MIC per drug in Combination (A. fumigatus MRL #28500; A. fumigatus MRL 28500 (azole-resistant, CYP51 F46Y), SCY-078 combined with isavuconazole) [µg/mL] | MIC (A. fumigatus MRL #28500; Aspergillus fumigatus, SCY078, 48 h, read-out: MIC per drug Alone, A. fumigatus MRL 28500 (azole-resistant, CYP51 F46Y), drug alone, SCY-078/isavuconazole test) [µg/mL] | survival rate up to day 13 ([1]; SCY2.5: SCY-078 2.5 mg/kg/day alone, 1 out of 6) [%] | survival until day 13 ([1]; SCY7.5: SCY-078 7.5 mg/kg/day alone, six per group) | MIC in Combination (A. fumigatus MRL #28500; A. fumigatus MRL 28500 (azole-resistant, CYP51 F46Y), SCY-078 combined with voriconazole) [µg/mL] | MIC Alone (A. fumigatus MRL #28500; A. fumigatus MRL 28500 (azole-resistant, CYP51 F46Y), drug alone, SCY-078/voriconazole test) [µg/mL] |
| --- | --- | --- | --- | --- | --- | --- | --- |
| C[C@@H](c1nc(-c2ccc(C#N)cc2)cs1)[C@](O)(Cn1cncn1)c1cc(F)ccc1F [Isavuconazole, isavuconazole] | 32 | >8 | > 8 | – | – | – | – |
| CC(C)[C@@H](C)[C@@]1(C)CC[C@]2(C)[C@H]3CC[C@@H]4[C@@]5(COC[C@@]4(C)[C@@H](OC[C@](C)(N)C(C)(C)C)[C@H](n4ncnc4-c4ccncc4)C5)C3=CC[C@@]2(C)[C@@H]1C(=O)O [SCY-078, (1S,4aR,6aS,7R,8R,10aR,10bR,12aR,14R,15R)-15-[[(2R)-2-amino-2,3,3-trimethylbutyl]oxy]-8-[(1R)-1,2-dimethylpropyl]-14-[5-(4-pyridinyl)-1H-1,2,4-triazol-1-yl]-1,6,6a,7,8,9,10,10a,10b,11,12,12a-dodecahydro-1,6a,8,10a-tetramethyl-4H-1,4a-propano-2H-phenanthro[1,2-c]pyran-7-carboxylic acid] | – | – | – | 16 | no animals surviving until day 13 | 1 | 8 |
